Data taken from ChEMBL document CHEMBL3232869, “Anti-inflammatory components of Euphorbia humifusa Willd” (Bioorg Med Chem Lett, 2014).
Active and inactive are the calls of the source. The calls are words filed in the database; no cut-off is given here.

Columns and labels:
[1] = target: T1, Bifunctional epoxide hydrolase 2 (Homo sapiens) (UniProt P34913); assay: Inhibition of sEH (unknown origin) assessed as substrate PHOME hydrolysis at 25 uM after 1 hr by fluorescence method
T1 sequence (whole entry): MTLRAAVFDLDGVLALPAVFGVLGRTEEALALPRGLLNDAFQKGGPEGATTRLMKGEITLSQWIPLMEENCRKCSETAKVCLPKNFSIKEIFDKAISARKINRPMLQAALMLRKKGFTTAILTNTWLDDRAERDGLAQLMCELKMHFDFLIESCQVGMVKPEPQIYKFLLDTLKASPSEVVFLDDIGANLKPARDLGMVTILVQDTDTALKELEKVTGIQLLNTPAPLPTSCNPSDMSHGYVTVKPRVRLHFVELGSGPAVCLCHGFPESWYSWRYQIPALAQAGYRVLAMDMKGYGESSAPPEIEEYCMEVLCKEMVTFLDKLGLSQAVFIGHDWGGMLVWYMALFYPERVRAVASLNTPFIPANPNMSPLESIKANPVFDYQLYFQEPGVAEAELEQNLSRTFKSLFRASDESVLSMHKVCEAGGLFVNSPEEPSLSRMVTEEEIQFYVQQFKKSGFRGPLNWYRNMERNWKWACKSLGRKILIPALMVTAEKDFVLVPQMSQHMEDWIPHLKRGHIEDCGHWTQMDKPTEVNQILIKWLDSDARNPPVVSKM

[2] = target: T2, Bifunctional epoxide hydrolase 2 (Homo sapiens, UniProt P34913); assay: Inhibition of sEH (unknown origin) assessed as substrate PHOME hydrolysis after 1 hr by fluorescence method
T2 sequence (P34913 whole entry): T1 sequence (whole entry)

RAW264.7 [3] = assay: Cytotoxicity against mouse RAW264.7 cells assessed as cell viability at 50 uM after 18 hrs by MTT assay in presence of LPS; assay type: cell-based; conditions: raw264.7, 18 h
RAW264.7 [4] = assay: Antiinflammatory activity in mouse RAW264.7 cells assessed as inhibition of LPS-induced nitric oxide production at 10 uM after 18 hrs by griess reaction analysis; assay type: functional
RAW264.7 [5] = assay: Antiinflammatory activity in mouse RAW264.7 cells assessed as inhibition of LPS-induced nitric oxide production at 0.4 uM after 18 hrs by griess reaction analysis; assay type: functional, cell-based
RAW264.7 [6] = assay: Antiinflammatory activity in mouse RAW264.7 cells assessed as inhibition of LPS-induced TNF-alpha secretion at 10 uM after 18 hrs by sandwich ELISA; assay type: functional
RAW264.7 [7] = assay: Antiinflammatory activity in mouse RAW264.7 cells assessed as inhibition of LPS-induced TNF-alpha secretion at 0.4 uM after 18 hrs by sandwich ELISA; assay type: functional, cell-based
RAW264.7 [8] = assay: Antiinflammatory activity in mouse RAW264.7 cells assessed as inhibition of LPS-induced nitric oxide production after 18 hrs by griess reaction analysis; assay type: functional, cell-based; conditions: RAW264.7, 18 h
RAW264.7 [9] = assay: Antiinflammatory activity in mouse RAW264.7 cells assessed as inhibition of LPS-induced TNF-alpha secretion after 18 hrs by sandwich ELISA; assay type: functional, cell-based; conditions: RAW264.7, 18 h

SMILES | inhibition [1] [%] | IC50 [2] [µM] | Activity (RAW264.7 [3]) | inhibition (RAW264.7 [4]) | inhibition (RAW264.7 [5]) | inhibition (RAW264.7 [6]) | inhibition (RAW264.7 [7]) | IC50 (RAW264.7 [8]) [µM] | IC50 (RAW264.7 [9]) [µM]
COC(=O)[C@H]1CC(=O)c2oc(=O)c3cc(O)c(O)c(O)c3c21 | > 40 | > 50 | Non-toxic | Active | inactive | Active | inactive | 23.8 | 21.2
O=C1C[C@H](C(=O)O)c2c1oc(=O)c1cc(O)c(O)c(O)c21 | > 40 | 47.4 | Non-toxic | inactive | inactive | Active | inactive | 41.2 | 21.3
O=c1c(O[C@@H]2O[C@H](CO)[C@H](O)[C@H](O)[C@H]2O)c(-c2ccc(O)c(O)c2)oc2cc(O)cc(O)c12 [HYPEROSIDE] | > 40 | 21.8 | Non-toxic | inactive | inactive | Active | inactive | 48.8 | > 50
O=c1c(O[C@@H]2O[C@H](CO)[C@@H](O)[C@H](O)[C@H]2O)c(-c2ccc(O)cc2)oc2cc(O)cc(O)c12 [ASTRAGALIN] | > 40 | > 50 | Non-toxic | inactive | inactive | Active | inactive | 37.1 | 40.6
